Usually half-life stands for how long it takes for the measured level to halve. A lower half-life goes with rapid decline. The term IC50 denotes the concentration at which inhibition is half-maximal. Read a low IC50 as greater potency in that assay.

Some results are limits rather than exact numbers.

Series [1] is described as follows: Half life in mice plasma. It counts as ADME, organism-based. The following applies: mouse.
Series [2] deals with cAMP-dependent protein kinase A (Bos taurus, UniProt P00515+P00517+P05131+P31322). The experiment in a line: Inhibition of bovine protein kinase A (PKA). Type of series: protein-complex assay.
Series [3] deals with RAC-alpha serine/threonine-protein kinase (Homo sapiens, UniProt P31749). The experiment in a line: Inhibition of Protein kinase B alpha.
RAC-alpha serine/threonine-protein kinase, sequence (P31749 whole entry): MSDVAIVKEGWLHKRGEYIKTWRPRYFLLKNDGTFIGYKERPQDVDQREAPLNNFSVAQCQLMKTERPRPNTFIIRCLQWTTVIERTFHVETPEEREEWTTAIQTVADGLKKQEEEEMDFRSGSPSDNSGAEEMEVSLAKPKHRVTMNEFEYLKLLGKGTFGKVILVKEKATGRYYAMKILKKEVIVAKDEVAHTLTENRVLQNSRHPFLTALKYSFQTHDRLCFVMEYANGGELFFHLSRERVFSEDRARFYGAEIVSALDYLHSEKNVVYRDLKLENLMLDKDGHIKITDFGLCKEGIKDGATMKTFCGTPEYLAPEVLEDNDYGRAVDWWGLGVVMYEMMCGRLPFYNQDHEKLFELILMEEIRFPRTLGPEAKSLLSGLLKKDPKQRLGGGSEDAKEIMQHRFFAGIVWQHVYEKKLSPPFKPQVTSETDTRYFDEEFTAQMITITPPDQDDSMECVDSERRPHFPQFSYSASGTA

In series [1], `COc1ccc(O)c(C(=O)c2ccc(C(=O)N[C@@H]3CCCNCC3NC(=O)c3ccncc3)cc2)c1F.Cl.Cl` (stereo not given in full) showed a half-life of 2.88 days.
For `COc1ccc(O)c(C(=O)c2ccc(CN[C@@H]3CCCNC[C@H]3NC(=O)c3ccncc3)cc2)c1F.Cl`, the IC50 came out at 0.8 µM in series [2] and 3000 nM in series [3]. The compound also gave a half-life in series [1] of 6.71 days.
On to `COc1ccc(O)c(C(=O)c2ccc(CO[C@@H]3CCCNCC3NC(=O)c3ccncc3)cc2)c1F.Cl.Cl` (stereo not given in full), for which the half-life in series [1] was 1.21 days. Further, the IC50 in series [3] was determined as 355 nM.
`COc1ccc(O)c(C(=O)c2ccc(/C=C/[C@@H]3CCCNC[C@H]3NC(=O)c3ccncc3)cc2)c1F` displayed an IC50 in series [3] of 160 nM.
As for `COc1ccc(O)c(C(=O)c2ccc(NC[C@@H]3CCCNCC3NC(=O)c3ccncc3)cc2)c1F` (stereo not given in full), the concentration for half-maximal inhibition (IC50) in series [2] worked out at 45 µM; in series [3], 25000 nM.
`COc1ccc(O)c(C(=O)c2ccc(C(=O)O[C@@H]3CCCNCC3NC(=O)c3ccncc3)cc2)c1F.Cl.Cl` (stereo not given in full) registered a half-life in series [1] of less than 0.000694 days.

Values taken from ChEMBL document CHEMBL1149095, “Structure-based optimization of novel azepane derivatives as PKB inhibitors” (J Med Chem, 2004).
